{
  "source": "patent US20110152088A1",
  "about": "“Herbicidal Composition Comprising Flufenacet” (BAYER CROPSCIENCE AG, priority 2009, published 2011)",
  "key": {"[1]": {"tested_on": "AVEFA", "assay": "Greenhouse trial: PE application with different irrigation variants (test method 7)", "assay_type": "in vivo, Avena fatua", "conditions": "g of AS/ha: (A) 120, (B) 1200, (C) 140, (A)+(B)+(C) 120 + 1200 + 140", "method": "(§1) In the standard design of the test, seeds of various broad-leaved weed and weed grass biotypes (origins) were sown in a 8-13 cm diameter pot filled with natural soil of a standard field soil (loamy silt; non-sterile) and covered with a covering soil layer of about 1 cm. The pots were then cultivated in a greenhouse (12-16 h of light, temperature day 20-22° C., night 15-18° C.) until the time of application. The pots were treated on a laboratory track sprayer with spray liquors comprising the compositions according to the invention, mixtures of the prior art or components used individually. Application of the active compounds or active compound combinations formulated as WG, WP, EC or otherwise was carried out at the appropriate growth stages of the plants. The application rate for the spray application was 100-600 l of water/ha. After the treatment, the plants were returned to the greenhouses.\n(§2) About 3 weeks after the application, the soil action or/and foliar action was assessed visually according to a scale of 0-100% in comparison to an untreated comparative group: 0%=no noticeable effect compared to the untreated comparative group; 100%=full effect compared to the untreated comparative group.\n(§3) (notes: the term “seeds” also includes vegetative propagation forms such as, for example, rhizome pieces; abbreviations used: h light=hours of illumination, g of AS/ha=gram of active substance per hectare, I/ha=liter per hectare, S=sensitive, R=resistant) • 1. Pre-emergence action against weeds: seeds of various broad-leaved weed and weed grass biotypes (origins) were sown in a 8-13 cm diameter pot filled with natural soil of a standard field soil (loamy silt; non-sterile) and covered with a covering soil layer of about 1 cm. The pots were then cultivated in a greenhouse (12-16 h of light, temperature day 20-22° C., night 15-18° C.) until the time of application. The pots were treated at the BBCH stage 00-10 of the seeds/plants on a laboratory track sprayer with spray liquors comprising the compositions according to the invention, mixtures or components used individually, as WG, WP, EC or other formulations. The application rate for the spray application was 100-600 l of water/ha. After the treatment, the plants were returned to the greenhouses and, when required, treated with fertilizer and watered. • 2. Post-emergence action against weeds: seeds of various broad-leaved weed and weed grass biotypes (origins) were sown in a 8-13 cm diameter pot filled with natural soil of a standard field soil (loamy silt; non-sterile) and covered with a covering soil layer of about 1 cm. The pots were then cultivated in a greenhouse (12-16 h of light, temperature day 20-22° C., night 15-18° C.) until the time of application. The pots were treated at various BBCH stages between 11-25 of the seeds/plants, i.e. generally between two to three weeks after the start of the cultivation, on a laboratory track sprayer with spray liquors comprising the compositions according to the invention, mixtures or components used individually, as WG, WP, EC or other formulations. The application rate for the spray application was 100-600 l of water/ha. After the treatment, the plants were returned to the greenhouses and, when required, treated with fertilizer and watered. • 3. Pre-emergence action against weeds with and without incorporation of active compound: seeds of various broad-leaved weed and weed grass biotypes (origins) were sown in a 8-13 cm diameter pot filled with natural soil of a standard field soil (loamy silt; non-sterile). […]"}, "[2]": {"tested_on": "TRZAS", "assay": "Greenhouse trial: PE application vs application 7 days prior to sowing (test method 6)", "assay_type": "in vivo, Triticum aestivum, summer wheat", "conditions": "g of AS/ha: (A) 90, (B) 1200, (C) 140, (A)+(B)+(C) 90 + 1200 + 140", "method": "as §1\nAbout 3 weeks after the application, the soil action or/and foliar action was assessed visually according to a scale of 0-100% in comparison to an untreated comparative group: 0%=no noticeable effect compared to the untreated comparative group; 100%=full effect compared to the untreated comparative group. […]"}, "[3]": {"tested_on": "POAAN", "assay": "Greenhouse trial: PO application (test methods 2 and 5)", "assay_type": "in vivo, Poa annua", "conditions": "g of AS/ha: (A) 120, (B) 1600, (C) 140, (A)+(B)+(C) 120 + 1600 + 140", "method": "as §1, §2\n(notes: the term “seeds” also includes vegetative propagation forms such as, for example, rhizome pieces; abbreviations used: h light=hours of illumination, g of AS/ha=gram of active substance per hectare, I/ha=liter per hectare, S=sensitive, R=resistant) • 1. Pre-emergence action against weeds: seeds of various broad-leaved weed and weed grass biotypes (origins) were sown in a 8-13 cm diameter pot filled with natural soil of a standard field soil (loamy silt; non-sterile) and covered with a covering soil layer of about 1 cm. The pots were then cultivated in a greenhouse (12-16 h of light, temperature day 20-22° C., night 15-18° C.) until the time of application. […]"}, "[4]": {"tested_on": "APESV", "assay": "Greenhouse trial: different sowing depths on PE application (test method 10)", "assay_type": "in vivo, Apera Spica-venti", "conditions": "g of AS/ha: (A) 90, (B) 1200, (C) 140, (A)+(B)+(C) 90 + 1200 + 140", "method": "as §1, §2, §3"}, "[5]": {"tested_on": "LOLPE", "assay": "Greenhouse trial: PE application with different irrigation variants (test method 7)", "assay_type": "in vivo, Lolium perenne", "conditions": "g of AS/ha: (A) 120, (B) 1200, (C) 140, (A)+(B)+(C) 120 + 1200 + 140", "method": "as §1, §2, §3"}},
  "data": [
    {"smiles": "CSc1nnc(C(C)(C)C)c(=O)n1N", "note": "[(C) metribuzin, 4-amino-6-(1,1-dimethylethyl)-3-(methylthio)-1,2,4-triazon-5(4H)-one]", "values": [
      {"measurement": "activity AVEFA", "setting": "[1]; Irrigation from above", "value": 30, "unit": "%"},
      {"measurement": "activity AVEFA", "setting": "[1]; Irrigation from below", "value": 30, "unit": "%"},
      {"measurement": "activity TRZAS (crop plant)", "setting": "[2]", "value": 30, "unit": "%"},
      {"measurement": "activity POAAN", "setting": "[3]", "value": 79, "unit": "%"},
      {"measurement": "activity APESV 5 mm", "setting": "[4]; sowing depth 5 mm", "value": 75, "unit": "%"},
      {"measurement": "activity APESV 20 mm", "setting": "[4]; sowing depth 20 mm", "value": 100, "unit": "%"},
      {"measurement": "activity LOLPE", "setting": "[5]; Irrigation from above", "value": 55, "unit": "%"},
      {"measurement": "activity LOLPE", "setting": "[5]; Irrigation from below", "value": 48, "unit": "%"}
    ]}
  ]
}
